Test results as given in patent EP0005541A2, “Substituted piperidine, morpholine or piperidone derivatives, fungicides containing these compounds, process for their preparation and their use, and the use of these compounds as fungicides” (F. HOFFMANN-LA ROCHE & CO. Aktiengesellschaft, priority 1978, dated 1979).

Columns and labels:
Assay type in all cases: in vivo
Erysiphe graminis = Erysiphe graminis protective spray test on barley seedlings (greenhouse); settings: barley seedlings HERTA, infected 2 days after spraying, read 7 days after infection vs infected untreated control
Description: 30-40 Gerstenkeimlinge der Sorte HERTA (verteilt auf 2 Töpfe mit 7 cm Durchmesser) wurden jeweils im Einblattstadium mit einer wässerigen Dispersion der Testsubstanz (wie allgemein üblich aufbereitet als Spritzpulver) allseitig gründlich besprüht und anschliessend bei 22-26°C, 80% rel. Luftfeuchtigkeit und einer Photoperiode von 16 Stunden im Gewächshaus weiterkultiviert. Die Infektion erfolgte 2 Tage nach der Behandlung durch Bestäuben der Versuchspflanzen mit Kon dien von Erysiphe graminis. 7 Tage nach der Infektion wurde ::ie durch Erysiphe graminis befallene Blattfläche in % gegenüber derjenigen der infizierten, nicht behandelten Kontrolle ermittelt. Die Resultate sind in Tabelle I zusammengefasst.

Venturia inaequalis = Venturia inaequalis protective spray test on apple seedlings; settings: infected 2 days after spraying, read on day 13 after infection vs infected untreated control
Description: 3 Apfelpflänzchen (verteilt auf 3 Töpfe mit 5 cm Durchmesser) aus Samen der Sorte GOLDIN DELICIOUS wurden im 4- bis 5-Blattstadium mit einer wässerigen Dispersion der Testsubstanz (wie allgemein üblich aufbereitet als Spritzpulver) allseitig gründlich besprüht. Die behandelten Pflanzen wurden anschliessend während 2 Tagen bei 17°C, 70-80%rel. Luftfeuchtigkeit und einer Photoperiode von 14 Stunden weiterkultiviert. Danach erfolgte die Infektion der Apfelsämlinge durch Besprühen mit in dest. Wasser suspendierten Konidien (200'000 Konidien/ml) von Venturia inaequalis. Nach der Infektion wurden die Pflanzen im Dunkeln während 48 Stunden bei 16-18°C und einer rel. Luftfeuchtigkeit von über 90% inkubiert und anschliessend in ein schattiertes Gewächshaus mit einer Temperatur von 22-26 °C und einer rel. Luftfeuchtigkeit von über 80% überführt. Am 13. Tage nach der Infektion erfolgte die Ermittlung der durch Venturia inaequalis befallenen Blattfläche gegenüber der infizierten, nicht behandelten Kontrolle. Die Resultate sind in Tabelle II zusammengefasst.

Puccinia coronata = Puccinia coronata protective spray test on oat seedlings; settings: oat seedlings FLAEMINGSKRONE, infected 2 days after spraying, read on day 9 after infection vs infected untreated control
Description: 30-40 Haferkeimlinge der Sorte FLAEMINGSKRONE (verteilt auf 2 Töpfe mit 7 cm Durchmesser) wurden jeweils im Einblattstadium mit einer wässerigen Dispersion der Testsubstanz (wie allgemein üblich aufbereitet als Spritzpulver) allseitig gründlich besprüht und anschliessend in einer Klimakabine bei 17°C. 70-80% rel. Luftfeuchtigkeit und einer Photoperiode von 16 Stunden weiterkultiviert. Nach 2 Tagen erfolgte die Infektion der Versuchspflanzen durch Besprühen mit in dest. Wasser suspendierten Uredosporen (300'000 Sporen/ml) vor. Puccinia coronata. Danach wurden die Pflanzen während 24 Stunden bei 20°C und einer Luftfeuchtigkeit von über 90W im Dunkeln inkubiert und anschliessend in ein Gewächshaus mit einer Temperatur von 22-26 °C, einer rel. Luftfeuchtigkeit von 70% und einer Photoperiode von 18 Stunden übe führt. Am 9. Tage nach der Infektion wurde die durch Pucrinia coronata befallene Blattfläche in % gegenüber der infizierten, nicht behandelten Kontrolle ermittelt. Die ResLltate sind in Tabelle I zusammengefasst.

CC(Cc1ccc(C(C)(C)CCl)cc1)CN1CC(C)CC(C)C1 (centres unmarked) [1-/3-[p-(2-Chlor-1,1-dimethyl-äthyl)-phenyl]-2-methyl-propyl/-3,5-dimethyl-piperidin]
Wirkung (in %) Erysiphe graminis (Erysiphe graminis; 5 mg/l Spritzbrühe): 85% | Wirkung (in %) Erysiphe graminis (Erysiphe graminis; 16 mg/l Spritzbrühe): 92% | Wirkung (in %) Erysiphe graminis (Erysiphe graminis; 50 mg/l Spritzbrühe): 100% | Wirkung (in %) Erysiphe graminis (Erysiphe graminis; 160 mg/l Spritzbrühe): 100% | Wirkung (in %) Erysiphe graminis (Erysiphe graminis; 500 mg/l Spritzbrühe): 100% | Wirkung (in %) Venturia inaequalis (Venturia inaequalis; 5 mg/l Spritzbrühe): 20% | Wirkung (in %) Venturia inaequalis (Venturia inaequalis; 16 mg/l Spritzbrühe): 33% | Wirkung (in %) Venturia inaequalis (Venturia inaequalis; 50 mg/l Spritzbrühe): 77% | Wirkung (in %) Venturia inaequalis (Venturia inaequalis; 160 mg/l Spritzbrühe): 87% | Wirkung (in %) Venturia inaequalis (Venturia inaequalis; 500 mg/l Spritzbrühe): 99% | Wirkung (in %) Puccinia coronata (Puccinia coronata; 5 mg/l Spritzbrühe): 40% | Wirkung (in %) Puccinia coronata (Puccinia coronata; 16 mg/l Spritzbrühe): 98% | Wirkung (in %) Puccinia coronata (Puccinia coronata; 50 mg/l Spritzbrühe): 100% | Wirkung (in %) Puccinia coronata (Puccinia coronata; 160 mg/l Spritzbrühe): 100% | Wirkung (in %) Puccinia coronata (Puccinia coronata; 500 mg/l Spritzbrühe): 100%

CC(Cc1ccc(C(C)(C)CCl)cc1)CN1CCCCC1 (centres unmarked) [1-/3-[p-(2-Chlor-1,1-dimethyl-äthyl)-phenyl]-2-methyl-propyl/-piperidin]
Wirkung (in %) Erysiphe graminis (Erysiphe graminis; 5 mg/l Spritzbrühe): 45% | Wirkung (in %) Erysiphe graminis (Erysiphe graminis; 16 mg/l Spritzbrühe): 70% | Wirkung (in %) Erysiphe graminis (Erysiphe graminis; 50 mg/l Spritzbrühe): 80% | Wirkung (in %) Erysiphe graminis (Erysiphe graminis; 160 mg/l Spritzbrühe): 97% | Wirkung (in %) Erysiphe graminis (Erysiphe graminis; 500 mg/l Spritzbrühe): 100% | Wirkung (in %) Venturia inaequalis (Venturia inaequalis; 5 mg/l Spritzbrühe): 0% | Wirkung (in %) Venturia inaequalis (Venturia inaequalis; 16 mg/l Spritzbrühe): 20% | Wirkung (in %) Venturia inaequalis (Venturia inaequalis; 50 mg/l Spritzbrühe): 30% | Wirkung (in %) Venturia inaequalis (Venturia inaequalis; 160 mg/l Spritzbrühe): 90% | Wirkung (in %) Venturia inaequalis (Venturia inaequalis; 500 mg/l Spritzbrühe): 95% | Wirkung (in %) Puccinia coronata (Puccinia coronata; 5 mg/l Spritzbrühe): 30% | Wirkung (in %) Puccinia coronata (Puccinia coronata; 16 mg/l Spritzbrühe): 65% | Wirkung (in %) Puccinia coronata (Puccinia coronata; 50 mg/l Spritzbrühe): 85% | Wirkung (in %) Puccinia coronata (Puccinia coronata; 160 mg/l Spritzbrühe): 100% | Wirkung (in %) Puccinia coronata (Puccinia coronata; 500 mg/l Spritzbrühe): 100%

CCC(C)(C)c1ccc(C(C)=C(C)CN2CCC3(CC2)OCCO3)cc1 [1-[3-(p-tert.-Amyl-phenyl)-2,3-dimethyl-2-propenyl]-4,4-äthylendioxy-piperidin]
Wirkung (in %) Erysiphe graminis (Erysiphe graminis; 5 mg/l Spritzbrühe): 75% | Wirkung (in %) Erysiphe graminis (Erysiphe graminis; 16 mg/l Spritzbrühe): 90% | Wirkung (in %) Erysiphe graminis (Erysiphe graminis; 50 mg/l Spritzbrühe): 90% | Wirkung (in %) Erysiphe graminis (Erysiphe graminis; 160 mg/l Spritzbrühe): 98% | Wirkung (in %) Venturia inaequalis (Venturia inaequalis; 5 mg/l Spritzbrühe): 0% | Wirkung (in %) Venturia inaequalis (Venturia inaequalis; 16 mg/l Spritzbrühe): 0% | Wirkung (in %) Venturia inaequalis (Venturia inaequalis; 50 mg/l Spritzbrühe): 10% | Wirkung (in %) Venturia inaequalis (Venturia inaequalis; 160 mg/l Spritzbrühe): 10% | Wirkung (in %) Venturia inaequalis (Venturia inaequalis; 500 mg/l Spritzbrühe): 95% | Wirkung (in %) Puccinia coronata (Puccinia coronata; 5 mg/l Spritzbrühe): 20% | Wirkung (in %) Puccinia coronata (Puccinia coronata; 16 mg/l Spritzbrühe): 98% | Wirkung (in %) Puccinia coronata (Puccinia coronata; 50 mg/l Spritzbrühe): 100% | Wirkung (in %) Puccinia coronata (Puccinia coronata; 160 mg/l Spritzbrühe): 100% | Wirkung (in %) Puccinia coronata (Puccinia coronata; 500 mg/l Spritzbrühe): 100%

CCC(C)(C)c1ccc(CC(C)CN2CCC3(CC2)OCCO3)cc1 (centres unmarked) [1-[3-(p-tert.-Amyl-phenyl)-2-methyl-propyl]-4,4-äthylendioxy-piperidin]
Wirkung (in %) Erysiphe graminis (Erysiphe graminis; 5 mg/l Spritzbrühe): 75% | Wirkung (in %) Erysiphe graminis (Erysiphe graminis; 16 mg/l Spritzbrühe): 85% | Wirkung (in %) Erysiphe graminis (Erysiphe graminis; 50 mg/l Spritzbrühe): 90% | Wirkung (in %) Erysiphe graminis (Erysiphe graminis; 160 mg/l Spritzbrühe): 100% | Wirkung (in %) Erysiphe graminis (Erysiphe graminis; 500 mg/l Spritzbrühe): 100% | Wirkung (in %) Venturia inaequalis (Venturia inaequalis; 5 mg/l Spritzbrühe): 0% | Wirkung (in %) Venturia inaequalis (Venturia inaequalis; 16 mg/l Spritzbrühe): 40% | Wirkung (in %) Venturia inaequalis (Venturia inaequalis; 50 mg/l Spritzbrühe): 63% | Wirkung (in %) Venturia inaequalis (Venturia inaequalis; 160 mg/l Spritzbrühe): 97% | Wirkung (in %) Venturia inaequalis (Venturia inaequalis; 500 mg/l Spritzbrühe): 98% | Wirkung (in %) Puccinia coronata (Puccinia coronata; 5 mg/l Spritzbrühe): 10% | Wirkung (in %) Puccinia coronata (Puccinia coronata; 16 mg/l Spritzbrühe): 30% | Wirkung (in %) Puccinia coronata (Puccinia coronata; 50 mg/l Spritzbrühe): 90% | Wirkung (in %) Puccinia coronata (Puccinia coronata; 160 mg/l Spritzbrühe): 100% | Wirkung (in %) Puccinia coronata (Puccinia coronata; 500 mg/l Spritzbrühe): 100%

CC(CN1CCC2(CC1)OCCO2)=C(C)c1ccc(C(C)(C)C)cc1 [1-[3-(p-tert.-Butyl-phenyl)-2,3-dimethyl-2-propenyl]-4,4-äthylendioxy-piperidin]
Wirkung (in %) Erysiphe graminis (Erysiphe graminis; 5 mg/l Spritzbrühe): 80% | Wirkung (in %) Erysiphe graminis (Erysiphe graminis; 16 mg/l Spritzbrühe): 98% | Wirkung (in %) Erysiphe graminis (Erysiphe graminis; 50 mg/l Spritzbrühe): 98% | Wirkung (in %) Erysiphe graminis (Erysiphe graminis; 160 mg/l Spritzbrühe): 100% | Wirkung (in %) Erysiphe graminis (Erysiphe graminis; 500 mg/l Spritzbrühe): 100% | Wirkung (in %) Venturia inaequalis (Venturia inaequalis; 5 mg/l Spritzbrühe): 0% | Wirkung (in %) Venturia inaequalis (Venturia inaequalis; 16 mg/l Spritzbrühe): 0% | Wirkung (in %) Venturia inaequalis (Venturia inaequalis; 50 mg/l Spritzbrühe): 20% | Wirkung (in %) Venturia inaequalis (Venturia inaequalis; 160 mg/l Spritzbrühe): 37% | Wirkung (in %) Venturia inaequalis (Venturia inaequalis; 500 mg/l Spritzbrühe): 83% | Wirkung (in %) Puccinia coronata (Puccinia coronata; 5 mg/l Spritzbrühe): 98% | Wirkung (in %) Puccinia coronata (Puccinia coronata; 16 mg/l Spritzbrühe): 100% | Wirkung (in %) Puccinia coronata (Puccinia coronata; 50 mg/l Spritzbrühe): 100% | Wirkung (in %) Puccinia coronata (Puccinia coronata; 160 mg/l Spritzbrühe): 100% | Wirkung (in %) Puccinia coronata (Puccinia coronata; 500 mg/l Spritzbrühe): 100%

CC(CN1CCC(=O)CC1)=C(C)c1ccc(C(C)(C)C)cc1 [1-[3-(p-tert.-Butyl-phenyl)-2,3-dimethyl-2-propenyl]-4-piperidon]
Wirkung (in %) Erysiphe graminis (Erysiphe graminis; 5 mg/l Spritzbrühe): 0% | Wirkung (in %) Erysiphe graminis (Erysiphe graminis; 16 mg/l Spritzbrühe): 60% | Wirkung (in %) Erysiphe graminis (Erysiphe graminis; 50 mg/l Spritzbrühe): 100% | Wirkung (in %) Erysiphe graminis (Erysiphe graminis; 160 mg/l Spritzbrühe): 100% | Wirkung (in %) Erysiphe graminis (Erysiphe graminis; 500 mg/l Spritzbrühe): 100% | Wirkung (in %) Venturia inaequalis (Venturia inaequalis; 5 mg/l Spritzbrühe): 0% | Wirkung (in %) Venturia inaequalis (Venturia inaequalis; 16 mg/l Spritzbrühe): 10% | Wirkung (in %) Venturia inaequalis (Venturia inaequalis; 50 mg/l Spritzbrühe): 20% | Wirkung (in %) Venturia inaequalis (Venturia inaequalis; 160 mg/l Spritzbrühe): 37% | Wirkung (in %) Venturia inaequalis (Venturia inaequalis; 500 mg/l Spritzbrühe): 83% | Wirkung (in %) Puccinia coronata (Puccinia coronata; 5 mg/l Spritzbrühe): 0% | Wirkung (in %) Puccinia coronata (Puccinia coronata; 16 mg/l Spritzbrühe): 25% | Wirkung (in %) Puccinia coronata (Puccinia coronata; 50 mg/l Spritzbrühe): 100% | Wirkung (in %) Puccinia coronata (Puccinia coronata; 160 mg/l Spritzbrühe): 100% | Wirkung (in %) Puccinia coronata (Puccinia coronata; 500 mg/l Spritzbrühe): 100%

CC(Cc1ccc(C(C)(C)C)cc1)CN1CCC2(CC1)OCCO2 (centres unmarked) [1-[3-(p-tert.-Butyl-phenyl)-2-methyl-propyl]-4,4-äthylendioxy-piperidin]
Wirkung (in %) Erysiphe graminis (Erysiphe graminis; 5 mg/l Spritzbrühe): 30% | Wirkung (in %) Erysiphe graminis (Erysiphe graminis; 16 mg/l Spritzbrühe): 50% | Wirkung (in %) Erysiphe graminis (Erysiphe graminis; 50 mg/l Spritzbrühe): 70% | Wirkung (in %) Erysiphe graminis (Erysiphe graminis; 160 mg/l Spritzbrühe): 85% | Wirkung (in %) Venturia inaequalis (Venturia inaequalis; 500 mg/l Spritzbrühe): 20% | Wirkung (in %) Puccinia coronata (Puccinia coronata; 5 mg/l Spritzbrühe): 90% | Wirkung (in %) Puccinia coronata (Puccinia coronata; 16 mg/l Spritzbrühe): 95% | Wirkung (in %) Puccinia coronata (Puccinia coronata; 50 mg/l Spritzbrühe): 100% | Wirkung (in %) Puccinia coronata (Puccinia coronata; 160 mg/l Spritzbrühe): 100% | Wirkung (in %) Puccinia coronata (Puccinia coronata; 500 mg/l Spritzbrühe): 100%

CC(Cc1ccc(C(C)(C)C)cc1)CN1CCC(=O)CC1 (centres unmarked) [1-[3-(p-tert.-Butyl-phenyl)-2-methyl-propyl]-4-piperidon]
Wirkung (in %) Erysiphe graminis (Erysiphe graminis; 5 mg/l Spritzbrühe): 75% | Wirkung (in %) Erysiphe graminis (Erysiphe graminis; 16 mg/l Spritzbrühe): 80% | Wirkung (in %) Erysiphe graminis (Erysiphe graminis; 50 mg/l Spritzbrühe): 93% | Wirkung (in %) Erysiphe graminis (Erysiphe graminis; 160 mg/l Spritzbrühe): 100% | Wirkung (in %) Venturia inaequalis (Venturia inaequalis; 5 mg/l Spritzbrühe): 0% | Wirkung (in %) Venturia inaequalis (Venturia inaequalis; 16 mg/l Spritzbrühe): 0% | Wirkung (in %) Venturia inaequalis (Venturia inaequalis; 50 mg/l Spritzbrühe): 0% | Wirkung (in %) Venturia inaequalis (Venturia inaequalis; 160 mg/l Spritzbrühe): 10% | Wirkung (in %) Venturia inaequalis (Venturia inaequalis; 500 mg/l Spritzbrühe): 90% | Wirkung (in %) Puccinia coronata (Puccinia coronata; 5 mg/l Spritzbrühe): 0% | Wirkung (in %) Puccinia coronata (Puccinia coronata; 16 mg/l Spritzbrühe): 0% | Wirkung (in %) Puccinia coronata (Puccinia coronata; 50 mg/l Spritzbrühe): 0% | Wirkung (in %) Puccinia coronata (Puccinia coronata; 160 mg/l Spritzbrühe): 0% | Wirkung (in %) Puccinia coronata (Puccinia coronata; 500 mg/l Spritzbrühe): 98%
